According to patent US11613552B2, “Pharmaceutical agents, compositions, and methods relating thereto” (Alltech, Inc., priority 2017, dated 2023):

What was measured:
Pdk1/Akt/Foxo1 [1] = assay: Western blot of Pdk1/Akt/Foxo1 signaling in livers of Lepr^db/db mice; format: in vivo, mouse; conditions: 25 μg selenium/kg ip daily, 52 days (FIG. 12)
Experimental: Male Lepr^db/db mice (C57BL/6J strain, purchased from The Jackson Laboratory) at postnatal day 38 were intraperitoneally injected daily with physiological saline ([…]) containing 0.2% DMSO, Compound #43 (25 μg selenium or sulfur equivalent of each compound per kilogram body weight, diluted in sterile physiological saline) for 52 days. After the treatment, livers were collected and stored at −80° C.
(§1) Frozen liver tissues were minced in sterile ice-old PBS containing complete proteinase and phosphatase inhibitors (Thermo-Fisher Scientific, Waltham, Mass.) and subjected to homogenization using a tissue homogenizer (Thermo-Fisher Scientific, Waltham, Mass.). These tissue homogenates were diluted in Themo-Fisher's premade RIPA buffer (1 part homogenate/2 part of RIPA buffer) containing complete proteinase/phosphatase inhibitors to extract the proteins. Proteins in the homogenates were extracted in RIPA buffer at 4° C. overnight. These overnight-extracted protein lysates were centrifuged at 12000×g for 30 min at 4° C., and the protein levels in the supernatant of these tissue lysates were determined using the Pierce Micro-BCA protein assay kit (Thermo Scientific-Piece Biotechnology, Rockford, Ill.) according to the manufacturer's protocol.
One hundred micrograms of liver tissue proteins or five micrograms of total proteins from control- and compound(s)-treated HepG2 or AML-12 cells were subjected to SDS-PAGE gel separation and then transferred to PVDF membranes, as described previously (Reddy et al. 2008 Science). Membranes were blocked in a phosphate-buffered saline (PBS) containing 5% (w/v) of bovine serum albumin (Sigma, St. Louis, Mo.) and incubated with specific primary antibodies followed by the incubation with HRP-conjugated anti-mouse or anti-rabbit secondary antibodies (1:5000 dilution, Cell Signaling Inc.). All primary antibodies except Gapdh (Li-COR, Lincoln, Nebr.) were purchased from Cell Signaling Inc. Positive signals on the membrane blots were detected using the Amersham's enhanced chemiluminescence Western Blotting Prime Detection reagents (GE Healthcare Lifescience, Pittsburgh, Pa.). Images of these luminescence signals on the membrane blots were captured using the LI-COR Odyssey Fc Image system (Lincoln, Nebr.). The same membrane blot was stripped and re-blotted with another antibody as described in the GE WB ECL-prime-detection protocol (GE healthcare Lifescience, Pittsburgh, Pa.). Protein band densities in the Western blots were determined using the NIH ImageJ software and then normalized by Gapdh or Actb/ACTB level in each sample. Data are presented as mean±SEM of three samples per each group.

Glut4 = assay: QRT-PCR of Glut4 mRNA in AML-12 cells; format: cell-based, mouse
Experimental: For RNA analysis of basal Glut4 (Slc2a4) expression (in the absence of diabetic stimuli 8-CPT/Dex), amplified AML-12 cells were cultured on 24-well (1×10^5 cells/well) plates overnight in 10% FBS ITS- and Dex-free DMEM/F12 media. These cells were washed twice with PBS to remove residual sera and then were incubated with vehicle (0.024% DMSO) or with Compound #43 (300 ppb) in serum-free DMEM/F12 media for 24 hours.
For RNA analysis of Glut4 expression in AML-12 cells cultured under simulated diabetic conditions, amplified AML-12 cells were cultured on 24-well (2×10^5 cells/well) plates in 10% FBS ITS- and Dex-free DMEM/F12 media overnight. Then these cells were washed twice with PBS to remove any potential residual sera and then were serum-starved in plain DMEM/F12 media overnight. These serum-starved AML-12 cells were then incubated with vehicle (0.024% DMSO) or with Compound #43 (300 ppb) in the presence of diabetic stimuli, 0.1 mM 8-CPT (Sigma) and 0.5 μM Dex, in serum-free plain DMEM/F12 media for 6 and 24 hours.
Total liver RNA from saline- or Compound #43-treated Lepr^db/db mice was isolated using a Qiagen RNAeasy RNA isolation kit according to the Manufacturer's protocol. Total RNA from cultured cells was isolated using Trizol (Invitrogen) according to the manufacturer's protocol, and then incubated with DNase I to remove any potential contaminating genomic DNA. […]

Pdk1/Akt/Foxo1 [2] = assay: Western blot of Pdk1/Akt/Foxo1 in skeletal muscles of Lepr^db/db mice; format: in vivo, mouse; conditions: 0.136 mg/kg ip daily, 52 days (FIG. 18)
Experimental: Male Lepr^db/db mice (C57BL/6J strain, purchased from The Jackson Laboratory) at 38 days of age were intraperitoneally injected daily with physiological saline ([…]) containing 0.2% DMSO or 0.136 mg of Compound #43 per kilogram body weight, diluted in the sterile physiological saline) for 52 days. After the treatment, gastrocnemius skeletal muscle samples were collected and stored at −80° C.
as §1, with “Frozen skeletal muscles” for “Frozen liver tissues”, “Themo-Fisher's” for “Themo-Fisher's premade”, “overnight-extracted protein/tissue” for “overnight-extracted protein”
One hundred micrograms of skeletal muscle proteins were subjected to SDS-PAGE gel separation and then transferred to PVDF membranes, as described previously (Reddy et al. 2008 Science). Membranes were blocked in a phosphate-buffered saline (PBS) containing 5% (w/v) of bovine serum albumin (Sigma, St. Louis, Mo.) and incubated with specific primary antibodies followed by the incubation with HRP-conjugated anti-mouse or anti-rabbit secondary antibodies (1:5000 dilution, Cell Signaling Inc.). All primary antibodies were purchased from Cell Signaling Inc, except the antibodies against β-tubulin (LI-COR bioscience). Positive signals on the membrane blots were detected using Amersham's enhanced chemiluminescence Western Blotting Prime Detection reagents (GE Healthcare Lifescience, Pittsburgh, Pa.). Images of these luminescence signals on the membrane blots were captured using the LI-COR Odyssey Fc Image system (Lincoln, Nebr.). The same membrane blot was stripped and re-blotted with another antibody as described in the GE WB ECL-prime-detection protocol (GE healthcare Lifescience, Pittsburgh, Pa.). Protein band densities in the Western blots were determined using the NIH ImageJ software and then normalized by β-tubulin level in each sample. Data are presented as mean±SEM of 5 animal samples.

C[Se]C[C@H]1O[C@@H](n2cnc3c(N)ncnc32)C(OC(C)=O)C1OC(C)=O (stereo partly shown) [Compound #43, Adenosine, 5′-Se-methyl-5′-selino-, 2′,3′-diacetate]
pAkt (Threonine 308) protein level in liver (Pdk1/Akt/Foxo1 [1]): significantly elevated
pFoxo1 (Serine 256) protein level in liver (Pdk1/Akt/Foxo1 [1]): significantly elevated
pPdk1 protein level in liver (Pdk1/Akt/Foxo1 [1]): significantly elevated
total Akt levels in liver (Pdk1/Akt/Foxo1 [1]): no significant change
effect on Glut4 mRNA expression (Glut4; 300 ppb with 8-CPT/Dex, 6 and 24 hours (FIG. 16B)): significant increase in Glut4 mRNA expression
increase of basal Glut4 mRNA expression (Glut4; 300 ppb, serum-free, 24 hours (FIG. 16A)): about 2.1 fold
pAkt protein levels in skeletal muscle (Pdk1/Akt/Foxo1 [2]): significantly elevated
pFoxo1 protein levels in skeletal muscle (Pdk1/Akt/Foxo1 [2]): significantly elevated
total Akt and Foxo1 protein levels in skeletal muscle (Pdk1/Akt/Foxo1 [2]): no significant change
pPdk1 protein levels in skeletal muscle (Pdk1/Akt/Foxo1 [2]; P=0.11): approached statistical significance
